One data set deals with CYP1A2. The data set is described as follows: in vitro. It is filed as in vitro ADME, human. Particulars: human.
Another data set concerns CYP2B6. The data set is described as follows: in vitro. It is filed as in vitro ADME, human. Particulars: human, 10 µM.
The next data set deals with CYP3A4. The data set is described as follows: in vitro. As to conditions: human.
The conditions of data set [1]: healthy male subjects, single oral dose of 60 mg 14C‐DFZ; cited from earlier work.
The conditions of data set [2]: cited from earlier work.
Where [3] appears, read: CYP1A2 enzyme activity fold induction, donor one.
Where [4] appears, read: CYP1A2 enzyme activity fold induction, donor three.
[5] abbreviates: CYP1A2 enzyme activity fold induction, donor two.
The mark [6] stands for this setting: CYP1A2 mRNA fold induction, donor one.
[7] abbreviates: CYP1A2 mRNA fold induction, donor three.
The mark [8] stands for this setting: CYP1A2 mRNA fold induction, donor two.

A word on the fold induction: it is the ratio of treated to control signal. Regarding `COc1ccc2[nH]c([S+]([O-])Cc3ncc(C)c(OC)c3C)nc2c1` (centres unmarked) [Omeprazole, reference compound], the fold induction at 48 h, 100 µM was found to be 3.55 with CYP1A2 (setting [3]); 8.36 with CYP1A2 (setting [4]); 5.48 in the data set on CYP1A2 (setting [5]); 39.6 in the data set on CYP1A2 (setting [6]); 40.5 in the data set with CYP1A2 (setting [7]); 34.8 in the data set with CYP1A2 (setting [8]).

As to `COc1c(N2CCNC(C)C2)c(F)cc2c(=O)c(C(=O)O)cn(C3CC3)c12` (centres unmarked) [Gatifloxacin, reference compound], the fold induction at 48 h, 10 µM is 0.744 in the data set with CYP1A2 (setting [3]); 0.996 with CYP1A2 (setting [4]); 0.805 with CYP1A2 (setting [5]); 0.941 in the data set on CYP1A2 (setting [6]); 0.898 with CYP1A2 (setting [7]); 1.12 with CYP1A2 (setting [8]). Besides, the fold induction at 48 h, 10 µM with CYP2B6 (CYP2B6 enzyme activity fold induction, donor one) is 0.719; in the data set on CYP2B6 (CYP2B6 enzyme activity fold induction, donor three) it was 0.875; in the data set with CYP2B6 (CYP2B6 enzyme activity fold induction, donor two) it was 1.05; in the data set with CYP2B6 (CYP2B6 mRNA fold induction, donor one) it was 0.965; in the data set on CYP2B6 (CYP2B6 mRNA fold induction, donor three) it was 0.989; in the data set on CYP2B6 (CYP2B6 mRNA fold induction, donor two), 0.685. In addition, the fold induction at 48 h, 10 µM in the data set with CYP3A4 (CYP3A4 enzyme activity fold induction, donor one) was found to be 0.881; in the data set with CYP3A4 (CYP3A4 enzyme activity fold induction, donor three), 1.44; in the data set with CYP3A4 (CYP3A4 enzyme activity fold induction, donor two) it was 0.861; in the data set on CYP3A4 (CYP3A4 mRNA fold induction, donor one), 0.612; with CYP3A4 (CYP3A4 mRNA fold induction, donor three), 1.18; in the data set with CYP3A4 (CYP3A4 mRNA fold induction, donor two), 0.591.

For the compound `CC1=N[C@]2(C(=O)CO)[C@@H](C[C@H]3[C@@H]4CCC5=CC(=O)C=C[C@]5(C)[C@H]4[C@@H](O)C[C@@]32C)O1` [21‐desDFZ, 21‐desacetyl deflazacort], in data set [1], the “share of 0–24 h plasma levels of total radioactivity” value was 33%. In data set [2], the “protein binding in human plasma” value is “about 40%”.

(Values after publication PMC7982320 (Pharmacology Research & Perspectives, 2021).)
